Results published in patent US12258332B2, “ASGPR cell surface receptor binding compounds and conjugates” (Lycia Therapeutics, Inc., priority 2021, dated 2025).
Where two headings read alike, the source gives them in different places.

Experiments:
HepG2 cells = assay: Uptake of Alexa488-labelled target IgE bound to omalizumab (OMA) conjugates in HepG2 cells, flow cytometry; format: cell-based, human; conditions: omalizumab (anti-IgE) conjugate bound to IgE-Alexa488, equal molar ratios; 1 hour
Method: (§1) The omalizumab conjugates of Example 60 were bound to IgE-Alexa488 (prepared according to Example 62), as follows: equal molar ratios of omalizumab (anti-IgE) conjugate and IgE-Alexa488 were added in tissue culture media for 30 minutes at room temperature. The resulting anti-IgE conjugate:IgE antibody-Alexa488 compositions were added to HepG2 cells (100 k cells/50 ul per well, n=2), and Alexa488 fluorescence levels in the cells were measured at 1 hour by flow cytometry. As the fluorescently labelled target (IgE antibody) accumulates in cells, the fluorescence presents a way to measure total intracellular uptake by cells over time.
as §1, with “OMA Ab” for “The omalizumab”, “example compounds I-160-I-163 and I-141” for “Example 60”, “by adapting procedure in” for “according to”, “61),” for “62),”, “OMA(anti-IgE)” for “omalizumab (anti-IgE)”

ASGPR = biological target: T1, ASGPR (Homo sapiens, UniProt P07306); assay: ASGPR binding by fluorescence polarization assay (GalNac-Cy5 probe); conditions: for IC50: 80 nM ASGPR, 1 nM probe, 2 hr incubation
T1 construct: purchased Acro Biosystems
T1 sequence (P07306 1-291): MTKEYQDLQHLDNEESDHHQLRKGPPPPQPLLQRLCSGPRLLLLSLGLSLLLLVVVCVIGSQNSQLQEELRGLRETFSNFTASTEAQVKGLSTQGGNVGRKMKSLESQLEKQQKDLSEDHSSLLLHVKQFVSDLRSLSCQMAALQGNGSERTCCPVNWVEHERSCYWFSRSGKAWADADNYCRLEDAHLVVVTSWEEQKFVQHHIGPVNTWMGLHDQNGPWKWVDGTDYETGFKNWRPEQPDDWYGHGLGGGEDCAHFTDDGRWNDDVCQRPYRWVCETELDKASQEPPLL
Method: Assay Procedure: ASGPR binding was measured in black 96-well plates using a fluorescence polarization assay. A fluorescent probe consisting of a tri-GalNAc linked to Cy5 (GalNac-Cy5, depicted below) was custom synthesized. Example compounds were resuspended in DMSO and 3-fold serial dilutions were made at 100× final concentrations. Binding reactions were conducted in 100 μl final volume in 20 mM Hepes (pH 7.5) 50 mM NaCl 5 mM CaCl2 0.015% Triton X-100 1% DMSO with 80 nM ASGPR (Acro Biosystems) and 1 nM probe. Fluorescence polarization was measured using λex=620 nm, λem=688 nm on an Envision plate reader (Perkin Elmer) after 2 hr incubation time. Dose responses were conducted in duplicate and normalized to the response with DMSO (high) and 1 μM reference compound 18G (low) on each plate. IC50 values were determined by fitting to 4-parameter curves in GraphPad Prism.
Example monovalent compounds (depicted below) were assessed at 100 μM as compared to a reference compound 18G (e.g., intermediate compound 18G in Example 14) as a positive control, following the assay procedure outlined in Example 68.

[1] = trivalent compounds, read-out: IC50
[2] = monovalent compounds, read-out: IC50 (MM)
[3] = trivalent compounds, dose response curves

Compound	IC50 (ASGPR; [1])	IC50 (ASGPR; [2])	ASGPR binding affinity compared to reference compound 18G / other trivalent compounds (ASGPR; [3])	further results
CC(=O)N[C@@H]1[C@@H](O)[C@@H](O)[C@@H](CO)O[C@H]1SCCC(=O)NCCCCCNC(=O)CCOCC(COCCC(=O)NCCCCCNC(=O)CCS[C@@H]1O[C@H](CO)[C@H](O)[C@H](O)[C@H]1NC(C)=O)(COCCC(=O)NCCCCCNC(=O)CCS[C@@H]1O[C@H](CO)[C@H](O)[C@H](O)[C@H]1NC(C)=O)NC(=O)CCCCCCCCCCC(=O)Oc1c(F)c(F)c(F)c(F)c1F [Compound I-141, perfluorophenyl 1-(((2S,3R,4R,5R,6R)-3-acetamido-4,5-dihydroxy-6-(hydroxymethyl)tetrahydro-2H-pyran-2-yl)thio)-16,16-bis((3-((5-(3-(((2S,3R,4R,5R,6R)-3-acetamido-4,5-dihydroxy-6-(hydroxymethyl)tetrahydro-2H-pyran-2-yl)thio)propanamido)pentyl)amino)-3-oxopropoxy)methyl)-3,11,18-trioxo-14-oxa-4,10,17-triazanonacosan-29-oate]	–	–	–	relative uptake activity of Alexa488 labeled-target IgE in HepG2 cells (HepG2 cells): superior uptake to that of the 0-glycoside
O=C(O)CCCCCCCCCCC(=O)NC(CCC(=O)NCCOCCOCCn1cc(COc2nc(N[C@H]3CO[C@H](CO)[C@H](O)[C@@H]3O)cc(C(F)(F)F)n2)nn1)(CCC(=O)NCCOCCOCCn1cc(COc2nc(N[C@H]3CO[C@H](CO)[C@H](O)[C@@H]3O)cc(C(F)(F)F)n2)nn1)CCC(=O)NCCOCCOCCn1cc(COc2nc(N[C@H]3CO[C@H](CO)[C@H](O)[C@@H]3O)cc(C(F)(F)F)n2)nn1 [Compound 1920]	> 100 nM	–	–	–
O=C(O)c1cccc(OCc2cn([C@H]3CO[C@H](CO)[C@H](O)[C@@H]3O)nn2)c1 [XB20, 3-((1-((3S,4R,5R,6R)-4,5-dihydroxy-6-(hydroxymethyl)tetrahydro-2H-pyran-3-yl)-1H-1,2,3-triazol-4-yl)methoxy)benzoic acid]	–	1000 to 50000 nM	–	–
CC(=O)N[C@H]1[C@H](OCCCCC(=O)NCCCNC(=O)CCOCC(N)(COCCC(=O)NCCCNC(=O)CCCCO[C@@H]2O[C@H](CO)[C@H](O)[C@H](O)[C@H]2NC(C)=O)COCCC(=O)NCCCNC(=O)CCCCO[C@@H]2O[C@H](CO)[C@H](O)[C@H](O)[C@H]2NC(C)=O)O[C@H](CO)[C@H](O)[C@@H]1O [Compound 18G]	≤ 50 nM	≤ 1000 nM	–	–
OC[C@H]1OC[C@H](Nc2cc(C(F)(F)F)ccn2)[C@@H](O)[C@H]1O [XB23]	–	1000 to 50000 nM	–	–
CC(=O)N[C@H]1[C@H](OCCCCC(=O)NCCCNC(=O)CCOCC(COCCC(=O)NCCCNC(=O)CCCCO[C@@H]2O[C@H](CO)[C@H](O)[C@H](O)[C@H]2NC(C)=O)(COCCC(=O)NCCCNC(=O)CCCCO[C@@H]2O[C@H](CO)[C@H](O)[C@H](O)[C@H]2NC(C)=O)NC(=O)CCCCCCCCCCC(=O)O)O[C@H](CO)[C@H](O)[C@@H]1O [Compound I-124acid, reference compound]	> 100 nM	–	reduced ASGPR binding affinity	–
CC(C)(C)C(=O)N[C@H]1CO[C@H](CO)[C@H](O)[C@@H]1O [Compound 592]	–	> 50000 nM	–	–
O=C(O)CCCCCCCCCCC(=O)NC(COCCC(=O)NCCCCNC(=O)c1ccc(OCc2cn([C@H]3CO[C@H](CO)[C@H](O)[C@@H]3O)nn2)cc1)(COCCC(=O)NCCCCNC(=O)c1ccc(OCc2cn([C@H]3CO[C@H](CO)[C@H](O)[C@@H]3O)nn2)cc1)COCCC(=O)NCCCCNC(=O)c1ccc(OCc2cn([C@H]3CO[C@H](CO)[C@H](O)[C@@H]3O)nn2)cc1 [1902 (I-172), 13,13-bis((3-((4-(4-((1-((3S,4R,5R,6R)-4,5-dihydroxy-6-(hydroxymethyl)tetrahydro-2H-pyran-3-yl)-1H-1,2,3-triazol-4-yl)methoxy)benzamido)butyl)amino)-3-oxopropoxy)methyl)-1-(4-((1-((3S,4R,5R,6R)-4,5-dihydroxy-6-(hydroxymethyl)tetrahydro-2H-pyran-3-yl)-1H-1,2,3-triazol-4-yl)methoxy)phenyl)-1,8,15-trioxo-11-oxa-2,7,14-triazahexacosan-26-oic acid]	≤ 50 nM	–	comparable affinity as reference compound 18G	–
NC(CCC(=O)NCCOCCOCCOCc1cn([C@H]2[C@H]3OC[C@](CO)(O3)[C@H](O)[C@@H]2O)nn1)(CCC(=O)NCCOCCOCCOCc1cn([C@H]2[C@H]3OC[C@](CO)(O3)[C@H](O)[C@@H]2O)nn1)CCC(=O)NCCOCCOCCOCc1cn([C@H]2[C@H]3OC[C@](CO)(O3)[C@H](O)[C@@H]2O)nn1 [XB40, 4-amino-4-(1-(1-((1S,2R,3R,4R,5S)-2,3-dihydroxy-1-(hydroxymethyl)-6,8-dioxabicyclo[3.2.1]octan-4-yl)-1H-1,2,3-triazol-4-yl)-12-oxo-2,5,8-trioxa-11-azatetradecan-14-yl)-N1,N7-bis(2-(2-(2-((1-((1S,2R,3R,4R,5S)-2,3-dihydroxy-1-(hydroxymethyl)-6,8-dioxabicyclo[3.2.1]octan-4-yl)-1H-1,2,3-triazol-4-yl)methoxy)ethoxy)ethoxy)ethyl)heptanediamide]	≤ 50 nM	–	–	–
C#CC[C@H]1O[C@H](CO)[C@H](O)[C@H](O)[C@H]1NC(C)=O [Compound 591]	–	1000 to 50000 nM	–	ASGPR binding affinity among the tested monomers (ASGPR; monovalent compounds, dose response curves): highest affinity of the tested monomers
C#CCCCO[C@H]1CO[C@H](CO)[C@H](O)[C@@H]1O [Compound 593]	–	–	–	binding as a percentage of the activity of reference compound 18G (ASGPR; monovalent compounds at 100 μM): < 50%
O=C(O)CCCCCCCCCCC(=O)NC(COCCC(=O)NCCCCNC(=O)c1cccc(OCc2cn([C@H]3CO[C@H](CO)[C@H](O)[C@@H]3O)nn2)c1)(COCCC(=O)NCCCCNC(=O)c1cccc(OCc2cn([C@H]3CO[C@H](CO)[C@H](O)[C@@H]3O)nn2)c1)COCCC(=O)NCCCCNC(=O)c1cccc(OCc2cn([C@H]3CO[C@H](CO)[C@H](O)[C@@H]3O)nn2)c1 [1901 (I-171), 13,13-bis((3-((4-(3-((1-((3S,4R,5R,6R)-4,5-dihydroxy-6-(hydroxymethyl)tetrahydro-2H-pyran-3-yl)-1H-1,2,3-triazol-4-yl)methoxy)benzamido)butyl)amino)-3-oxopropoxy)methyl)-1-(3-((1-((3S,4R,5R,6R)-4,5-dihydroxy-6-(hydroxymethyl)tetrahydro-2H-pyran-3-yl)-1H-1,2,3-triazol-4-yl)methoxy)phenyl)-1,8,15-trioxo-11-oxa-2,7,14-triazahexacosan-26-oic acid]	≤ 50 nM	–	comparable affinity as reference compound 18G	–
NC(CCC(=O)NCCOCCOCCOCc1cn([C@H]2CO[C@H](CO)[C@H](O)[C@@H]2O)nn1)(CCC(=O)NCCOCCOCCOCc1cn([C@H]2CO[C@H](CO)[C@H](O)[C@@H]2O)nn1)CCC(=O)NCCOCCOCCOCc1cn([C@H]2CO[C@H](CO)[C@H](O)[C@@H]2O)nn1 [XB32, 4-amino-4-(1-(1-((3S,4R,5R,6R)-4,5-dihydroxy-6-(hydroxymethyl)tetrahydro-2H-pyran-3-yl)-1H-1,2,3-triazol-4-yl)-12-oxo-2,5,8-trioxa-11-azatetradecan-14-yl)-N1,N7-bis(2-(2-(2-((1-((3S,4R,5R,6R)-4,5-dihydroxy-6-(hydroxymethyl)tetrahydro-2H-pyran-3-yl)-1H-1,2,3-triazol-4-yl)methoxy)ethoxy)ethoxy)ethyl)heptanediamide]	50 to 100 nM	–	comparable affinity as reference compound 18G	–
